pIC50: −log10 of the molar value.
Columns and labels:
MOLT-4 = test: CellTiter-Glo cell viability, MOLT-4; assay type: cell-based; details: Homo sapiens; MOLT-4 cells, 72 h with compound
Protocol: (§1) Antitumor activity against a panel of cancer cell lines Antitumor activity of the compounds was assessed by using the CellTiter-Glow® Luminescent Cell Viability assay (Promega #G7572) according to the manufacturer's instructions. The compounds were tested at 5 or 6 concentrations in 1:2 dilution increments (highest concentration 10 µM) in triplicate well conditions.
(§2) Tumor cells were grown at 37° C. in a humidified atmosphere with 5% CO2 in RPMI 1640 or DMEM medium, supplemented with 10% (v/v) fetal calf serum and 50 μg/ml gentamicin for up to 20 passages, and were passaged once or twice weekly. Cells were harvested using TrypLE or PBS buffer containing 1 mM EDTA, and the percentage of viable cells is determined using a cell counter.
(§3) Cells were harvested from exponential phase cultures, counted and plated in 96 well flat-bottom microtiter plates at a cell density depending on the cell line's growth rate (4,000-20,000 cells/well depending on the cell line's growth rate) in RPMI 1640 or DMEM medium supplemented with 10% (v/v) fetal calf serum and 50 μg/ml gentamicin (140 μl/well). Cultures were incubated at 37° C. and 5% CO2 in a humidified atmosphere. […] Viability of cells was quantified by the CellTiter-Glow® Luminescent Cell Viability assay (Promega #G7572). Luminescence was measured with the microplate luminometer (En Vision Perkin Elmer). […]

A375 = test: Caspase-Glo 3/7 apoptosis assay, A375; assay type: cell-based; details: A375 cells, 10 μM, 24 h
Protocol: (§4) Apoptosis activity was evaluated using Caspase-Glo 3/7 Assay kit (Promega-G8091) according to the manufacturer's instructions. Cells were grown as above and harvested from exponential phase cultures, counted and plated in 96 black well flat-bottom microtiter plates at a cell density depending on the cell line's growth rate (3,000-10,000 cells/well depending on the cell line's growth rate). Following an overnight incubation, compounds were added to the cell plates at various concentrations (highest at […]) with the DMSO concentration maintained at 0.1% for a 24 h period treatment. 100 μL of Caspase-Glo 3/7 Reagent was added to each well of 96-well plate containing 100 μL culture medium, and after 30 min at room temperature, luminescence was measured with the microplate luminometer (EnVision Perkin Elmer). The induced relative Caspase 3/7 activity of the tested compounds was determined by the following formula: Relative Caspase 3/7 activity (fold increase)=(RLU compound−RLU blank)/(RLU control−RLU blank).

MCF-7 = test: CellTiter-Glo cell viability, MCF-7; assay type: cell-based; details: Homo sapiens, MCF7; MCF-7 cells, 72 h with compound
Protocol: as §1, §2
(§5) Cells were harvested from exponential phase cultures, counted and plated in 96 well flat-bottom microtiter plates at a cell density depending on the cell line's growth rate (4,000-20,000 cells/well depending on the cell line's growth rate) in RPMI 1640 or DMEM medium supplemented with 10% (v/v) fetal calf serum and 50 μg/ml gentamicin (140 μl/well). Cultures were incubated at 37° C. and 5% CO2 in a humidified atmosphere. After 24 h, 10 μl of test compounds or control medium are added, and left on the cells for another 72 h. Compounds were serially diluted in DMSO, transferred in cell culture medium, and added to the assay plates. The DMSO concentration was kept constant at <0.2% v/v across the assay plate. Viability of cells was quantified by the CellTiter-Glow® Luminescent Cell Viability assay (Promega #G7572). Luminescence was measured with the microplate luminometer (En Vision Perkin Elmer).
(§6) Sigmoidal concentration-response curves were fitted to the data points (test-versus-control, T/C values) obtained for each tumor model using Graph Pad prism 5.02 software. IC50 values are reported as absolute IC50 values, being the concentration of test compound at the intersection of the concentration-response curves with T/C=50%.

NFKB = test: SelectScreen CellSensor pathway inhibition, NFKB; assay type: cell-based; details: Homo sapiens; NFKB-bla Jurkat, stimulus TNF-alpha
Protocol: Inhibition of various cellular pathways known to be involved in malignancy was tested using the SelectScreen Cell-based Pathway Profiling GeneBLAzer™ cell signaling pathway specific CellSensor™ cell lines ((Thermo Fisher). The assay is based on a beta-lactamase reporter activity which is modulated and can be measured quantitatively and selectively with the LiveBLAzer™-FRET B/G Loading Substrate. SelectScreen Cell-Based Pathway Profiling Service uses XLfit from IDBS. The dose response curve is curve fit to model number 205 (sigmoidal dose-response model). Custom logic was built by Thermo Fisher for the data analysis tool to address the different compound characteristics that can be observed with functional assays.
NFKB—NFKB-bla Jurkat—Inhibitor Screen, Activated by TNF-Alpha
NFKB-bla Jurkat cells are thawed and resuspended in Assay Media (DMEM, 10% dialyzed FBS, 25 mM HEPES pH 7.3, 0.1 mM NEAA, 100 U/mL/100 μg/mL Pen/Strep) to a concentration of 625,000 cells/mL. […] 4 μL of 10×control activator TNF-alpha at the pre-determined EC80 concentration is added to wells containing the control inhibitor or compounds.
The plate is incubated for 5 hours at 37° C./5% CO2 in a humidified incubator. […] The plate is read on a fluorescence plate reader.

SHP-77 = test: CellTiter-Glo cell viability, SHP-77; assay type: cell-based; details: Homo sapiens, SHP77; SHP-77 cells, 72 h with compound
Protocol: as §1, §2, §3

CHP-134 = test: Caspase-Glo 3/7 apoptosis assay, CHP-134; assay type: cell-based; details: CHP-134 cells, 3.16 μM, 24 h
Protocol: as §4

HCC-15 = test: CellTiter-Glo cell viability, HCC-15; assay type: cell-based; details: HCC15; HCC-15 cells, 72 h with compound
Protocol: as §1, §2, §5, §6

[1] = Tolerability in the A2058 xenograft study; assay type: in vivo, Balb-c/nude mouse; details: peritumoral QOD; resolved after the treatment was stopped
Protocol: Each Balb-c/nude mouse was inoculated subcutaneously at the right flank with A2058 melanoma tumor cells (5×10^6+Matrigel) in 0.2 ml of PBS for tumor development. 10 animals per group were randomized when the average tumor volume reached 74 mm^3. Test compounds were prepared as DMSO stocks and diluted in the injection vehicle before administration. The treatment was administered every other day (QOD) as a peritumoral injection. Vehicle composition was 4% DMSO, 5% ethanol, 20% PEG200, 71% saline. Dosing volume for all groups: 5 mL/kg.
Body weight and clinical signs were monitored throughout the study.

Daudi = test: CellTiter-Glo cell viability, Daudi; assay type: cell-based; details: Homo sapiens; Daudi cells, 72 h with compound
Protocol: as §1, §2, §3

NALM-6 = test: CellTiter-Glo cell viability, NALM-6; assay type: cell-based; details: Homo sapiens; NALM-6 cells, 72 h with compound
Protocol: as §1, §2, §3

K562 = test: CellTiter-Glo cell viability, K562; assay type: cell-based; details: Homo sapiens; K562 cells, 72 h with compound
Protocol: as §1, §2, §3

MeWo = test: Caspase-Glo 3/7 apoptosis assay, MeWo; assay type: cell-based; details: MeWo cells, 10 μM, 24 h
Protocol: as §4

NCI-H1975 = test: CellTiter-Glo cell viability, NCI-H1975; assay type: cell-based; details: Homo sapiens, H-1975 cells, 72 h with compound
Protocol: as §1, §2, §3

COc1ccc2c(=O)c(-c3ccc(CCCC[P+](c4ccccc4)(c4ccccc4)c4ccccc4)cc3)coc2c1OC.[Br-] [SND470, (4-(4-(7,8-Dimethoxy-4-oxo-4H-chromen-3-yl)phenyl)butyl)triphenylphosphonium bromide]
pIC50 (MOLT-4): 6.40 | Fold activation of Caspase 3/7 (A375): 13.98 Fold | pIC50 (MCF-7): 7.68 | pIC50 (NFKB): 5.82 | pIC50 (SHP-77): 6.04 | Fold activation of Caspase 3/7 (CHP-134): 7.02 Fold | pIC50 (HCC-15): 8.00 | finding at the site of the injection [1]: slight scabbing at the site of the injection | pIC50 (Daudi): 6.15 | pIC50 (NALM-6): 6.60 | pIC50 (K562): 7.85 | Fold activation of Caspase 3/7 (MeWo): 2.55 Fold | pIC50 (NCI-H1975): 6.85

— patent publication US20260028364A1, “CATIONIC CHROMENONES AND THEIR USE IN ONCOLOGY” (FLORATEK PHARMA S.A., priority 2022, published 2026)
